The text below walks through data of ChEMBL document CHEMBL1159269, “Mechanistic evaluation of new plant-derived compounds that inhibit HIV-1 reverse transcriptase” (J Nat Prod, 1995).

Each structure is given as a SMILES string.

Experiment [1] concerns the target T1, Human immunodeficiency virus type 1 reverse transcriptase (Human immunodeficiency virus 1, UniProt Q72547). Briefly: Inhibition of HIV1 reverse transcriptase p66/p51.
Experiment [2] can be described thus: Inhibition of HIV2 reverse transcriptase p66/p51. Also on record: species or system Human immunodeficiency virus 2.
The next experiment has as its target DNA polymerase beta (Homo sapiens, UniProt P06746). Briefly: Inhibition of DNA polymerase beta.
A short description of experiment [3]: Inhibition of RNA polymerase.
Experiment [4] in a line: Inhibition of AMV reverse transcriptase. Further details: species or system Avian myeloblastosis virus.
Experiment [5] addresses T1, Human immunodeficiency virus type 1 reverse transcriptase. Briefly: Inhibition of HIV1 reverse transcriptase p66/p51 using TTP substrate by non-competitive inhibition type assay.
Experiment [6] has as its target Human immunodeficiency virus type 1 reverse transcriptase (Human immunodeficiency virus 1) (UniProt Q72547). Briefly: Inhibition of HIV1 reverse transcriptase p66/p51 at 50 ug/ml in presence of 1000 ug/ml BSA.
Another experiment relates to DNA. Briefly: Binding affinity to calf thymus DNA assessed as inhibition of DNA peak at 260 nm wavelength at 250 ug/ml by HPLC. It counts as nucleic-acid assay. The following applies: Bos taurus.
Experiment [7] addresses T1, Human immunodeficiency virus type 1 reverse transcriptase. The experiment can be described thus: Inhibition of HIV1 reverse transcriptase p66/p51 using template-primer [oligo(dT)12-18 + poly(rA)] by mixed type competitive inhibition assay.
Experiment [8] has as its target Human immunodeficiency virus type 1 reverse transcriptase (Human immunodeficiency virus 1) (UniProt Q72547). The experiment can be described thus: Inhibition of HIV1 reverse transcriptase p66/p51 at 50 ug/ml in presence of 2.5 ug/ml BSA.
The test system of the next experiment is KB. Briefly: Cytotoxicity against human KB cells. The format is functional. The following applies: read-out: ED50 (the source's name).
A further experiment has as its system LNCaP. The experiment can be described thus: Cytotoxicity against human LNCAP cells. It counts as functional. The note with it: read-out: ED50 (the source's name).
The next experiment deals with ZR-75-1. The experiment can be described thus: Cytotoxicity against human ZR-75-1 cells. The format is functional. The note with it: read-out: ED50 (the source's name).
Experiment [9] deals with Human immunodeficiency virus type 1 reverse transcriptase (Human immunodeficiency virus 1) (UniProt Q72547). The experiment can be described thus: Inhibition of HIV1 reverse transcriptase p66/p51 at 50 ug/ml in presence of 250 ug/ml BSA.
For a further experiment, the system named is Lu1. Briefly: Cytotoxicity against human Lu1 cells. The format is functional. The note with it: read-out: ED50 (the source's name).
Experiment [10] addresses T1, Human immunodeficiency virus type 1 reverse transcriptase. Briefly: Inhibition of HIV1 reverse transcriptase p66/p51 using template-primer [oligo(dT)12-18 + poly(rA)] by competitive type inhibition assay.
The target is the same in experiment [11]. Briefly: Inhibition of HIV1 reverse transcriptase p66/p51 using TTP substrate by mixed type competitive inhibition assay.
Experiment [12] deals with Human immunodeficiency virus type 1 reverse transcriptase (Human immunodeficiency virus 1) (UniProt Q72547). Briefly: Inhibition of HIV1 reverse transcriptase p66/p51 at 200 ug/ml in presence of 250 ug/ml BSA.
For experiment [13] the target is unchanged. The experiment can be described thus: Inhibition of HIV1 reverse transcriptase p66/p51 at 200 ug/ml in presence of 1000 ug/ml BSA.

As a reminder, the IC50 is the concentration at which inhibition is half-maximal. High values mean a need for much substance, low ones inhibition by little substance. Regarding `CCCc1cc(=O)oc2c3c(c4c(c12)OC(C)(C)C=C4)O[C@H](C)[C@@H](C)[C@@H]3O` [CALANOLIDE A], in [1], the IC50 was 1 µM. This counts as single-digit micromolar.

Regarding `Cc1cn([C@H]2C[C@H](N=[N+]=[N-])[C@@H](CO)O2)c(=O)[nH]c1=O` [ZIDOVUDINE], the IC50 in [2] is 0.2 µM; at DNA polymerase beta it was more than 20 µM; in [3] it was more than 20 µM; in experiment [4] it was 0.43 µM.

As a reminder, the Ki is a dissociation constant, usually derived from enzyme kinetics or from competition with a known ligand. In general, inhibition refers to the relative decrease from the control value, in per cent. With `C=C1C(=O)O[C@@H](CCCCCCCCCCCCC)[C@@H]1C(=O)O` [PROTOLICHESTERINIC ACID], the Ki in experiment [5] stood at 7.1 µM; in experiment [7], 10 µM. Further, the IC50 in [2] amounted to 29.6 µM; in [1], 24.3 µM; on DNA polymerase beta, 7.4 µM; in [3], 92.8 µM; in [4], 21.9 µM. Further, the inhibition worked out at 19% in experiment [6], 1.3% with DNA, 99% in [8] and 52% in experiment [9]. Moreover, the EC50 in the experiment on KB, in the experiment with LNCaP, in the experiment on ZR-75-1 and in the experiment with Lu1 was more than 20 mg/L throughout.

Take `COc1cc(O)c2c(=O)c3c(O)c(-c4c(O)c([C@@H]5O[C@H](CO)[C@@H](O)[C@H](O)[C@H]5O)c(O)c5c(=O)cc(-c6ccc(O)c(O)c6)oc45)cc(O)c3oc2c1`: the IC50 in [2] was 56.6 µM; in experiment [1] it was 42.9 µM; against DNA polymerase beta, 57.7 µM; in experiment [3], 272 µM; in [4], 81 µM. Moreover, the Ki came out at 6.7 µM in experiment [10] and 7.1 µM in [11]. The inhibition in the experiment with DNA turned out to be 71%; in [12], 89%; in [13], 82%. Moreover, the EC50 with KB, in the experiment on LNCaP, in the experiment on ZR-75-1 and with Lu1 was more than 20 mg/L in each case.

`CC1=C(C#C/C(C)=C/C=C/C(C)=C/C=C/C=C(C)/C=C/C=C(\C)C(=O)C[C@@]23O[C@]2(C)C[C@@H](O)CC3(C)C)C(C)(C)C[C@H](O)C1` [HALOCYNTHIAXANTHIN] gave an IC50 in [1] of 7.2 µM.

On to `COc1cc2c(ccc3c4cc(OC)c(OC)cc4c[n+](C)c23)cc1O`, for which the inhibition in the experiment on DNA was determined as 100%.

On to `CC1(C)CC[C@]2(C(=O)O)CC=C3[C@]4(C)CC[C@H]5C(C)(C)[C@@H](OC(=O)c6ccc(O)cc6)C[C@@H](O)[C@]5(C)[C@H]4CC[C@@]3(C)[C@H]2C1`, for which the Ki in experiment [5] came out at 8.3 µM; in experiment [7], 6.7 µM. Besides, the IC50 was 59 µM in experiment [2], 2.2 µM on DNA polymerase beta, more than 338 µM in experiment [3] and 15.1 µM in experiment [4]. Further, the inhibition amounted to 0.8% in experiment [6], 0% in the experiment on DNA, 94% in experiment [8] and 19% in experiment [9]. Also, the EC50 in the experiment with KB, in the experiment with LNCaP, in the experiment with ZR-75-1 and with Lu1 was more than 20 mg/L throughout.
